From patent US8022235B2, “Compositions of phospholipid ether boronic acids and esters and methods for their synthesis and use” (Cellectar, Inc., priority 2007, dated 2011)

Columns and labels:
[1] = tested on: A549 human non-small cell lung cancer xenografts; test: Single-dose 125I-NM404 treatment, tumor volume, A549 xenografts; type: in vivo, SCID mice; conditions: unlabeled compound (control group), 10-week assessment
Source text: FIG. 3 illustrates antitumor effect of single-dose treatment with ^125I-125-NM404 at doses of 50 (∘), 150 (□), 250 (⋄) and 500 (∘) μCi in SCID mice bearing A549 human non-small cell lung cancer xenografts. In FIG. 3, control animals show rapidly growing tumors over the 10-week assessment period. […] Tumor volumes are stable and some tumors appear “collapsed” (the tumor surface has collapsed). Additionally, hair above the tumors fell off confirming substantial accumulation of radioactivity in these tumors.
FIG. 4 is an image showing one of the tumor-bearing animals treated with 250 μCi of ^125I-NM404 at 4 weeks following injection. The hair above the tumor has fallen off, apparently due to the significant accumulation of radioactivity in the tumor. […] The measurement method for determining outer tumor dimensions may have underestimated tumor volume response following dosing with ^125I-NM404;
The inventors have previously shown that ^125I-labeled PLE analogs such as NM404 are effective in targeting tumor therapies to tumor cells following single injection and fractionated dosing. For assessment of efficacy of ^125I-NM404 treatment, assessments of tumor volume were made until 10 weeks post-injection or until no animal in the control group was alive, whatever came first. Summarizing the results, control animals show rapidly growing tumors over the 10-week assessment period. See, FIGS. 2 and 3. […] Tumor volumes are stable and the same tumors appear “collapsed” (the tumor surface has caved in). Additionally, the hair above the tumors fell off confirming substantial accumulation of radioactivity in these tumors, FIG. 4. […] (See also, for example, U.S. patent application Ser. No. 11/671,403 hereby incorporated in its entirety for all purposes.)

[2] = Toxicology studies of unlabeled NM404 in rabbits; type: in vivo; conditions: for toxic effects: 14 days observation
Source text: (§1) In preparation for human clinical trials, unlabeled NM404 was subjected to independent (University of Buffalo Toxicology Research Center) acute toxicity evaluation at 1200 times the anticipated imaging mass dose in rats and rabbits. […] Due to its selective tumor uptake and retention properties in a variety of rodent tumor models and subsequent excellent safety profile in rats and rabbits, NM404 was selected to undergo initial human pharmacokinetic evaluation in non-small cell lung cancer (NSCLC) patients. Patients underwent planar gamma-camera scintigraphy after receiving an injection of ^131I-NM404 (<1 mCi).
(§2) Formal toxicology studies of NM404 in male rats and rabbits were performed at the Toxicology Research Center of the State University of New York at Buffalo under the direction of Dr. Paul Kostyniak. Drug vehicle and drug product were provided to Dr. Kostyniak by Dr. Raymond Counsell of the University of Michigan for testing as described in the appended synopses of Study 27 and Study 28. […] Human safety studies of unlabeled NM404 were initiated in normal male humans at a mass of 10 times the anticipated imaging dose and about 21 times the anticipated therapy dose. […] This toxicology study was performed under GLP conditions.
(§3) Subsequently, the inventors initiated a toxicology study of unlabeled NM404 in female rats and rabbits (Study 31 and Study 32) at the Toxicology Research Center at SUNY-Buffalo in order to expand the patient population to be studied in the NSCLC Phase 1 clinical trial. […] Human safety studies of unlabeled NM404 were initiated in normal female humans at a mass of 10 times the initially anticipated imaging dose and about 21 times the anticipated therapy dose. […] This toxicology study was performed under GLP conditions.

[3] = biological target: T1, albumin fraction (Rattus norvegicus, UniProt P02770); test: PAGE analysis of plasma radioactivity distribution after iodine-125 labeled 1; type: in vivo, Walker-256 tumor-bearing rats; conditions: plasma 7 days after administration
T1 construct: plasma was isolated from Walker-256 tumor-bearing rats; from tissue; host or cells: plasma of Walker-256 tumor-bearing rats
T1 sequence (P02770 25-608): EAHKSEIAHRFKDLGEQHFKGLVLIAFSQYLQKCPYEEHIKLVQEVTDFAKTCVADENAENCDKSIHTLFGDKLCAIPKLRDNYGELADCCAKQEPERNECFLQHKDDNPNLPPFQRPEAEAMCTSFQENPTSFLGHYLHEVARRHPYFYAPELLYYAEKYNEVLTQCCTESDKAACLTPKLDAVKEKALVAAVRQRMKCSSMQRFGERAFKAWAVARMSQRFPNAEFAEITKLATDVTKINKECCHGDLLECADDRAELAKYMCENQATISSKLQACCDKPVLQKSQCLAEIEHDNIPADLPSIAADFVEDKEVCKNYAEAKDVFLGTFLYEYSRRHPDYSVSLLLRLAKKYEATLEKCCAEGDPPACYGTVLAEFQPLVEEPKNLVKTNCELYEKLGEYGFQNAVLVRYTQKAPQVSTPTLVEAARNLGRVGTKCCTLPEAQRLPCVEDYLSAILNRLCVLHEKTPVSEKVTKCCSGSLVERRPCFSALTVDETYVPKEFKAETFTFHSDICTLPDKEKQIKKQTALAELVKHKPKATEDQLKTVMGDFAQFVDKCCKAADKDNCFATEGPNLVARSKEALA
Source text: In order to examine the transport properties of PLE analogs, plasma was isolated from Walker-256 tumor-bearing rats 7 days after administration of iodine-125 labeled 1. The distribution of radioactivity in the plasma compartment of a rat receiving 1 (NM404) was studied.

[4] = tested on: Mammary SCC and ACC; test: Imaging and tissue distribution, tumor model; therapeutic responses at imaging doses; type: in vivo, Apc^Min/+mouse; conditions: Squamous cell carcinoma and Adenocarcinoma
Source text: (§4) During the course of mouse tumor uptake and retention studies with “imaging” doses (15-20 μCi/20 g mouse) of ^125I-labeled NM404, several apparent therapeutic responses have been observed (unpublished results). […] Some of these animals also lost all hair above larger mammary tumors at around 8 days after injection. Moreover, these mice also get intestinal tumors and usually suffer from intestinal bleeding resulting in severe anemia, which renders their feet white. […] Another compelling example of tumor regression is illustrated in FIG. 13. Two litter mates each received SCC1 and SCC6 xenografts in their left and right flanks, respectively. One mouse received a single injection of ^125I-NM404 (20 μCi). […] These coincidental findings were reconfirmed in two separate age-matched groups each involving more than 6 mice.

[5] = tested on: Min Mouse Intestinal; test: as above; type: in vivo
Source text: as §4

[6] = tested on: Adrenal RL-251; test: Imaging and tissue distribution, tumor model; type: in vivo, SCID Mouse
[7] = Toxicology studies of unlabeled NM404 in rats; type: in vivo; conditions: for toxic effects: 14 days observation
Source text: as §1, §2, §3

[8] = tested on: mouse intestinal adenocarcinoma model; test: Therapeutic responses at imaging doses, aggressive intestinal model; type: in vivo; conditions: 12 days following administration, ^125I-labeled
Source text: as §4

[9] = Blood plasma kinetics; parameters: species or system rats; conditions: rat, in vivo
[10] = tested on: SCC1 and 6; test: Imaging and tissue distribution, tumor model; tumor regression; type: in vivo; conditions: Squamous cell carcinoma
Source text: as §4

[11] = tested on: Glioma L9; test: Imaging and tissue distribution, tumor model; type: in vivo, Rat
Source text: Imaging and tissue distribution studies performed in mouse models aimed at determining the uptake characteristics in a wide variety of tumor models are summarized in Table 1, below.

[12] = 1200 times the anticipated imaging mass dose

For `C[N+](C)(C)CCOP(=O)([O-])OCCCCCCCCCCCCCCCCCCc1ccc(I)cc1` [NM404, 18-(p-iodophenyl)-octadecyl phosphocholine], the “effect on tumor growth” value [1] was “no substantial effect on tumor growth”, the acute toxicity [2, 12] was “well tolerated and no acute toxicities were found” and the toxic effects ([2]; female rabbits, single dose 0.04 mg/kg, Study 32, GLP) was “No significant toxic effects”. For the same compound, the toxic effects ([2]; male rabbits, single dose 4 mg/kg, Study 28, GLP) was “No significant toxic effects”, the “circulating radioactivity associated with the albumin fraction” value [3] was 88% and the Uptake [4] was “Yes”. The Uptake ([5]; Adenocarcinoma) was “Yes”, the “survival vs untreated litter mates” value ([5]; after 21 days, both intestinal models) was “easily outlived their untreated litter mates” and the “feet color (anemia from intestinal bleeding)” value ([5]; around 5 days after a single injection, ^125I-labeled, 15-20 μCi/20 g mouse) was “reverted to a pink color”. For the same compound, the “intestinal tumors remaining at dissection” value ([5]; of the expected 20 or so, ^125I-labeled, 15-20 μCi/20 g mouse) was “only a very few, if any”, the Uptake ([6]; Adenocarcinoma) was “Yes” and the tumor retention ([6]; human adrenal tumor xenograft, FIG. 7) was “Prolonged tumor retention”. For the same compound, the acute toxicity [7, 12] was “well tolerated and no acute toxicities were found”, the toxic effects ([7]; female rats, single dose 0.04 mg/kg, Study 31, GLP) was “No significant toxic effects” and the toxic effects ([7]; male rats, single dose 4 mg/kg, Study 27, GLP) was “No significant toxic effects”. The “intestinal tumors at dissection” value [8] was “most, if not all, of the expected intestinal tumors were gone”, the “distribution phase half life” value [9] was 4.86 h and the “elimination half life time in plasma” value [9] was “roughly 209 hours”. For the same compound, the Uptake [10] was “Yes” and the Uptake [11] was “Yes”.
